The MIC is the lowest concentration that inhibits growth of the organism. A high value points to weaker potency. For orientation: solubility means how much of the substance goes into solution per volume. A low value points to a poorly soluble substance. What is called logP is the decadic logarithm of the partition coefficient of the neutral form, usually between octanol and water. Low readings indicate a more hydrophilic compound, high ones a more lipophilic compound.

In data set [1] the test system is Staphylococcus aureus. Description: Antibacterial activity against Staphylococcus aureus ATCC 4163 after 18 hrs by serial microdilution method. Format: functional. Particulars: ATCC 4163, 18 h. In general terms: Dilution methods test growth across graded concentrations, often in twofold steps.
Data set [2] deals with Staphylococcus aureus. Description: Antibacterial activity against Staphylococcus aureus ATCC 25923 after 18 hrs by serial microdilution method. The data set is classed as functional. The following applies: ATCC 25923, 18 h.
In data set [3] the test system is Staphylococcus aureus. The data set is described as follows: Antibacterial activity against Staphylococcus aureus ATCC 6538 after 18 hrs by serial microdilution method. The data set is classed as functional. The following applies: ATCC 6538, 18 h.
Data set [4] concerns Staphylococcus epidermidis. Description: Antibacterial activity against Staphylococcus epidermidis ATCC 12228 after 18 hrs by serial microdilution method. The data set is classed as functional. Particulars: ATCC 12228, 18 h.
Data set [5] relates to Staphylococcus epidermidis. The data set is described as follows: Antibacterial activity against Staphylococcus epidermidis ATCC 49134 after 18 hrs by serial microdilution method. Format: functional. Particulars: ATCC 49134, 18 h.
Data set [6] relates to Escherichia coli. The data set is described as follows: Antibacterial activity against Escherichia coli ATCC 10538 after 18 hrs by serial microdilution method. Format: functional. The following applies: ATCC 10538, 18 h.
Data set [7] deals with Enterococcus faecalis. The data set is described as follows: Antibacterial activity against Enterococcus faecalis ATCC 19433 after 18 hrs by serial microdilution method. Format: functional. Particulars: ATCC 19433, 18 h.
The subject of data set [8] is Salmonella enterica subsp. enterica serovar Abony. The data set is described as follows: Antibacterial activity against Salmonella abony NCTC 6017 after 18 hrs by serial microdilution method. Particulars: NCTC 6017, 18 h. The data set is classed as functional.
In data set [9] the test system is Trichophyton rubrum. The data set is described as follows: Antifungal activity against Trichophyton rubrum ATCC 28188 after 18 hrs by serial microdilution method. Format: functional. Particulars: ATCC 28188, 18 h.
The test system of data set [10] is Candida albicans. The data set is described as follows: Antifungal activity against Candida albicans ATCC 10231 after 18 hrs by serial microdilution method. Format: functional. The following applies: ATCC 10231, 18 h.
In data set [11] the test system is Mycobacterium tuberculosis. The data set is described as follows: Antituberculosis activity against Mycobacterium tuberculosis H37Rv after 7 days by serial two fold dilution method. The following applies: 168 h. The data set is classed as functional.
A short description of data set [12]: Solubility in water at pH 7 and 25 degC by UV-vis spectrophotometry. The data set is classed as physicochemical.
A short description of data set [13]: Octanol-water partition coefficient, log P of the compound. The data set is classed as physicochemical.

Each structure is given as a SMILES string. Values after ≈ are worked out from the molar mass of the structure shown.

Take `CO[C@H]1/C=C/O[C@@]2(C)Oc3c(C)c(O)c4c(O)c(c(CNCCN5CCCC5)c(O)c4c3C2=O)NC(=O)/C(C)=C\C=C\[C@H](C)[C@H](O)[C@@H](C)[C@@H](O)[C@@H](C)[C@H](OC(C)=O)[C@@H]1C`: the MIC in [1] amounted to 1 µg/mL (≈ 1.21 µM); in data set [2], 1 µg/mL (≈ 1.21 µM); in [3] it was 1 µg/mL (≈ 1.21 µM); in data set [4], 0.5 µg/mL (≈ 0.607 µM); in [5] it was 0.5 µg/mL (≈ 0.607 µM); in data set [6] it was 1 µg/mL (≈ 1.21 µM). Besides, the minimal inhibitory concentration (MIC) in data set [7] came out at 1 µg/mL (≈ 1.21 µM); in data set [8] it was 1 µg/mL (≈ 1.21 µM); in data set [9], 1 µg/mL (≈ 1.21 µM); in data set [10] it was 1 µg/mL (≈ 1.21 µM); in [11] it was 0.5 µg/mL (≈ 0.607 µM). The molecule further showed a solubility in data set [12] of 240 µg/mL (≈ 291 µM). In [13], this molecule showed a logP of 1.55.

Take `CO[C@H]1/C=C/O[C@@]2(C)Oc3c(C)c(O)c4c(O)c(c(CNCCCN5CCCC5)c(O)c4c3C2=O)NC(=O)/C(C)=C\C=C\[C@H](C)[C@H](O)[C@@H](C)[C@@H](O)[C@@H](C)[C@H](OC(C)=O)[C@@H]1C`: the MIC in data set [1] was 0.5 µg/mL (≈ 0.597 µM); in data set [2], 1 µg/mL (≈ 1.19 µM); in data set [3] it was 0.5 µg/mL (≈ 0.597 µM); in [4], 0.5 µg/mL (≈ 0.597 µM); in data set [5], 0.25 µg/mL (≈ 0.298 µM); in data set [6] it was more than 1 µg/mL. The MIC in [7] was more than 1 µg/mL; in [8] it was more than 1 µg/mL; in data set [9], more than 1 µg/mL; in data set [10], more than 1 µg/mL; in data set [11], 0.5 µg/mL (≈ 0.597 µM). In data set [12], this molecule returned a solubility of 240 µg/mL (≈ 286 µM). For the same molecule, the logP in data set [13] turned out to be 2.04.

`CO[C@H]1/C=C/O[C@@]2(C)Oc3c(C)c(O)c4c(O)c(c(CNC5CCN(Cc6ccccc6)CC5)c(O)c4c3C2=O)NC(=O)/C(C)=C\C=C\[C@H](C)[C@H](O)[C@@H](C)[C@@H](O)[C@@H](C)[C@H](OC(C)=O)[C@@H]1C`: the MIC is 0.25 µg/mL (≈ 0.278 µM) in data set [1]; 0.25 µg/mL (≈ 0.278 µM) in data set [2]; 0.25 µg/mL (≈ 0.278 µM) in data set [3]; 0.25 µg/mL (≈ 0.278 µM) in data set [4]; 0.25 µg/mL (≈ 0.278 µM) in data set [5]; more than 1 µg/mL in data set [6]. Also, the MIC is more than 1 µg/mL in data set [7]; more than 1 µg/mL in [8]; more than 1 µg/mL in data set [9]; more than 1 µg/mL in data set [10]; 0.005 µg/mL (≈ 0.00556 µM) in data set [11]. This molecule registered a solubility in data set [12] of less than 10 µg/mL. In data set [13], this molecule had a logP of 3.25.

Regarding `CO[C@H]1/C=C/O[C@@]2(C)Oc3c(C)c(O)c4c(O)c5c(c(O)c4c3C2=O)CN(Cc2cn(CN3C(=O)c4ccccc4C3=O)nn2)C(=N5)/C(C)=C\C=C\[C@H](C)[C@H](O)[C@@H](C)[C@@H](O)[C@@H](C)[C@H](OC(C)=O)[C@@H]1C`, the MIC was 1 µg/mL (≈ 1.05 µM) in data set [1]; more than 1 µg/mL in data set [2]; more than 1 µg/mL in data set [3]; more than 1 µg/mL in data set [4]; more than 1 µg/mL in data set [5]; more than 1 µg/mL in data set [6]. Also, the MIC in [7] is more than 1 µg/mL; in data set [8] it was more than 1 µg/mL; in [9], more than 1 µg/mL; in data set [10] it was more than 1 µg/mL; in [11] it was 0.5 µg/mL (≈ 0.527 µM). This molecule gave a solubility in [12] of less than 10 µg/mL. The logP in data set [13] was 3.26.

Turning to `CO[C@H]1/C=C/O[C@@]2(C)Oc3c(C)c(O)c4c(O)c(c(CNCCCn5ccnc5)c(O)c4c3C2=O)NC(=O)/C(C)=C\C=C\[C@H](C)[C@H](O)[C@@H](C)[C@@H](O)[C@@H](C)[C@H](OC(C)=O)[C@@H]1C`, the MIC was 0.5 µg/mL (≈ 0.599 µM) in data set [1]; 1 µg/mL (≈ 1.2 µM) in [2]; 0.5 µg/mL (≈ 0.599 µM) in data set [3]; 0.5 µg/mL (≈ 0.599 µM) in [4]; 0.25 µg/mL (≈ 0.299 µM) in data set [5]; more than 1 µg/mL in [6]. The MIC in data set [7] is more than 1 µg/mL; in [8], more than 1 µg/mL; in [9], more than 1 µg/mL; in data set [10], more than 1 µg/mL; in data set [11], 1 µg/mL (≈ 1.2 µM). In data set [12], this molecule yielded a solubility of 330 µg/mL (≈ 395 µM). In data set [13], this molecule gave a logP of 1.78.

With `CCCCCc1cn(CCCNCc2c3c(O)c4c(O)c(C)c5c(c4c2O)C(=O)[C@@](C)(O/C=C/[C@H](OC)[C@@H](C)[C@@H](OC(C)=O)[C@H](C)[C@H](O)[C@H](C)[C@@H](O)[C@@H](C)/C=C/C=C(/C)C(=O)N3)O5)nn1`, the MIC was 1 µg/mL (≈ 1.1 µM) in [1]; more than 1 µg/mL in data set [2]; 1 µg/mL (≈ 1.1 µM) in data set [3]; 0.5 µg/mL (≈ 0.552 µM) in data set [4]; 0.5 µg/mL (≈ 0.552 µM) in data set [5]; more than 1 µg/mL in data set [6]. Moreover, the MIC in [7] was more than 1 µg/mL; in data set [8], more than 1 µg/mL; in data set [9], more than 1 µg/mL; in data set [10] it was more than 1 µg/mL; in [11], 0.5 µg/mL (≈ 0.552 µM). The molecule further returned a solubility in [12] of less than 10 µg/mL. Besides, the logP in data set [13] was 3.42.

For the molecule `CCCc1cn(CCNCc2c3c(O)c4c(O)c(C)c5c(c4c2O)C(=O)[C@@](C)(O/C=C/[C@H](OC)[C@@H](C)[C@@H](OC(C)=O)[C@H](C)[C@H](O)[C@H](C)[C@@H](O)[C@@H](C)/C=C/C=C(/C)C(=O)N3)O5)nn1`, the minimum inhibitory concentration (MIC) is 1 µg/mL (≈ 1.16 µM) in data set [1]; more than 1 µg/mL in [2]; 1 µg/mL (≈ 1.16 µM) in [3]; 0.5 µg/mL (≈ 0.579 µM) in [4]; 0.5 µg/mL (≈ 0.579 µM) in data set [5]; more than 1 µg/mL in [6]. Also, the MIC is more than 1 µg/mL in data set [7]; more than 1 µg/mL in data set [8]; more than 1 µg/mL in data set [9]; more than 1 µg/mL in data set [10]; 1 µg/mL (≈ 1.16 µM) in data set [11]. For the same molecule, in data set [12], the solubility was less than 10 µg/mL. The molecule also yielded a logP in data set [13] of 2.14.
